Measured values reported in publication PMC11448502, “Cryo-EM structures of the human P2X1 receptor reveal subtype-specific architecture and antagonism by supramolecular ligand-binding” (Nature Communications, 2024).
Where a chain is given by its changes, count along the chain named. Several values for one entry are separate records, joined by “and”; a condition that tells them apart may be missing. Identical values can stand only once.

How the values were obtained:
Experiment in all cases: NF449 inhibition dose response (IC50), TEVC in oocytes
Type in all cases: cell-based
[1] = target: T1, hP2X1 K136A/R139A (Homo sapiens, UniProt P51575, K136A/R139A); conditions: for Normalized Current: hP2X1 K136A/R139A
T1 construct: hP2X1 mRNA that was made from linearized full-length wild-type or mutant pcDNA 3.1x; expressed in transfected cells; host or cells: Xenopus laevis oocytes (mRNA injection)
T1 sequence (P51575 1-399 K136A/R139A): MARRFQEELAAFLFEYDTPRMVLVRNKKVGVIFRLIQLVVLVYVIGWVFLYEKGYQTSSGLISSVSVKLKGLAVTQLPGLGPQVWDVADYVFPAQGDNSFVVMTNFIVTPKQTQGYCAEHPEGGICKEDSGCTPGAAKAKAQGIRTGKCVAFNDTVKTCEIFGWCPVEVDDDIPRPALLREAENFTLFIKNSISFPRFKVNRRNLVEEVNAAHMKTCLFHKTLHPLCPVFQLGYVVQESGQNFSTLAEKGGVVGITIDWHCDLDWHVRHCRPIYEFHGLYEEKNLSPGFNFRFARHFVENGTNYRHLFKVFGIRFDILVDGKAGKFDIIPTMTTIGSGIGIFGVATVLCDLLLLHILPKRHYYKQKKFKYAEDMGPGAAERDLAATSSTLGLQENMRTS
Experimental: (§1) Oocytes were purchased defolliculated from Ecocyte Bioscience in Barth’s Solution (88 mM NaCl, 1 mM KCl, 0.82 mM MgSO4, 0.33 mM Ca(NO3)2, 0.41 mM CaCl2, 2.4 mM NaHCO3, 5 mM Tris-HCl) supplemented with penicillin (100 U/mL) and streptomycin (100 µg/mL). Xenopus laevis oocytes were then injected with 50 nL of 100 ng/μL hP2X1 mRNA that was made from linearized full-length wild-type or mutant pcDNA 3.1x according to the protocol provided in the mMessage mMachine kit (Invitrogen). Injected oocytes were allowed to express for ~20 hours at 18 °C before recording was performed.
(§2) Data acquisition was performed using the Oocyte Clamp OC-725C amplifier and pClamp 8.2 software. Buffers were applied using a gravity fed RSC-200 Rapid Solution Changer that flows at ~5 mL/min. All experiments use Sutter filamented glass 10 cm in length with an inner diameter of 0.69 mm and an outer diameter of 1.2 mm to impale oocytes and clamp the holding voltage at −60 mV. Experiments were recorded in buffer containing 10 mM HEPES (pH 7.4), 140 mM NaCl, 5 mM KCl, 2 mM CaCl2, 2 mM MgCl2, and 10 mM glucose.
(§3) To test a dilution series of an antagonist at discrete concentrations, 10 µM ATP (2 mM ATP for K309A only) was first applied to evoke an initial maximum current. The oocyte was then washed with buffer for one minute, followed by one minute application of an antagonist test-concentration, and concluded by co-application of the same test concentration with 10 µM ATP (2 mM ATP for K309A). The antagonized signal was then normalized against the initial ATP excitatory signal. Each test concentration was performed in triplicate across different oocytes. The data was then fit to a nonlinear regression named “[inhibitor] vs. response – Variable slope (four parameters)” in Prism 9 to produce a sigmoidal curve and afford an IC50 value. Each singular condition was used to generate an average which is reported plus or minus its standard deviation between three discrete trials.

[2] = target: T2, hP2X1 R139A (Homo sapiens, UniProt P51575, R139A)
T2 construct: hP2X1 mRNA that was made from linearized full-length wild-type or mutant pcDNA 3.1x; expressed in transfected cells; host or cells: Xenopus laevis oocytes (mRNA injection)
T2 sequence (P51575 1-399 R139A): T1 sequence (P51575 1-399 K136A/R139A) with A136K
Experimental: as §1, §2, §3

[3] = target: T3, hP2X1 R292A (Homo sapiens, UniProt P51575, R292A); conditions: for Normalized Current: hP2X1 R292A
T3 construct: hP2X1 mRNA that was made from linearized full-length wild-type or mutant pcDNA 3.1x; expressed in transfected cells; host or cells: Xenopus laevis oocytes (mRNA injection)
T3 sequence (P51575 1-399 R292A): T1 sequence (P51575 1-399 K136A/R139A) with A136K, A139R, R292A
Experimental: as §1, §2, §3

[4] = target: T4, hP2X1 WT (Homo sapiens, UniProt P51575)
T4 construct: hP2X1 mRNA that was made from linearized full-length wild-type or mutant pcDNA 3.1x; expressed in transfected cells; host or cells: Xenopus laevis oocytes (mRNA injection)
T4 sequence (P51575 1-399): T1 sequence (P51575 1-399 K136A/R139A) with A136K, A139R
Experimental: as §1, §2, §3

## O=C(Nc1cc(C(=O)Nc2ccc(S(=O)(=O)O)cc2S(=O)(=O)O)cc(C(=O)Nc2ccc(S(=O)(=O)O)cc2S(=O)(=O)O)c1)Nc1cc(C(=O)Nc2ccc(S(=O)(=O)O)cc2S(=O)(=O)O)cc(C(=O)Nc2ccc(S(=O)(=O)O)cc2S(=O)(=O)O)c1 [NF449, 4,4’,4”,4’’’-(carbonylbis(imino-5,1,3-benzenetriylbis(carbonylimino)))tetrakis-benzene-1,3-disulfonic acid]
[1]; hP2X1 K136A/R139A vs wild-type
  decrease in inhibitory potency of NF449: 990 fold
[1]; [NF449] 1.000E-06 M
  Normalized Current: 0.4929 and 0.4694 and 0.363
[1]; [NF449] 2.000E-07 M
  Normalized Current: 0.8009 and 0.7536 and 0.7046
[1]; [NF449] 4.000E-08 M
  Normalized Current: 1.069 and 1.018 and 0.8793
[1]; [NF449] 6.246E-06 M
  Normalized Current: 0.148 and 0.1446 and 0.1086
[1]; [NF449] 8.000E-09 M
  Normalized Current: 1.104 and 1.01 and 0.886
[2]; [NF449] 1.600E-09 M
  Normalized Current: 0.9525 and 0.8503 and 0.8408
[2]; [NF449] 2.000E-07 M
  Normalized Current: 0.2675 and 0.1529
[2]; [NF449] 3.200E-10 M
  Normalized Current: 1.089 and 0.9841 and 0.9268
[2]; [NF449] 4.000E-08 M
  Normalized Current: 0.6975 and 0.6688 and 0.5159
[2]; [NF449] 5.000E-06 M
  Normalized Current: 0.000000
[2]; [NF449] 8.000E-09 M
  Normalized Current: 0.8121 and 0.8025 and 0.7834
[3]; hP2X1 R292A vs wild-type
  reduction in inhibitory potency of NF449: 31 fold
[3]; [NF449] 1.000E-06 M
  Normalized Current: 0.000000
[3]; [NF449] 1.600E-09 M
  Normalized Current: 1.038 and 1.012 and 0.9446
[3]; [NF449] 2.000E-07 M
  Normalized Current: 0.09965 and 0.08304 and 0.07993
[3]; [NF449] 3.200E-10 M
  Normalized Current: 1.08 and 0.9654 and 0.955
[3]; [NF449] 4.000E-08 M
  Normalized Current: 0.4671 and 0.3945 and 0.2595
[3]; [NF449] 8.000E-09 M
  Normalized Current: 0.8305 and 0.7889 and 0.7059
[4]; [NF449] 1.600E-10 M
  Normalized Current: 0.9675 and 0.945 and 0.9562
[4]; [NF449] 3.200E-11 M
  Normalized Current: 1.007 and 0.9213 and 1.004
[4]; [NF449] 6.400E-12 M
  Normalized Current: 1.049 and 0.9637 and 0.9878
[4]; [NF449] 8.000E-10 M
  Normalized Current: 0.5214 and 0.4548 and 0.5008
